# Results: patent publication US7101878B1 (Agouron Pharmaceuticals, Inc., priority 1998, dated 2006)
# Molecular target: T1, mouse GnRH receptor (Mus musculus, UniProt Q01776)
# T1 construct: expressed in transfected cells; host or cells: 293 cells
# T1 sequence (Q01776 1-327): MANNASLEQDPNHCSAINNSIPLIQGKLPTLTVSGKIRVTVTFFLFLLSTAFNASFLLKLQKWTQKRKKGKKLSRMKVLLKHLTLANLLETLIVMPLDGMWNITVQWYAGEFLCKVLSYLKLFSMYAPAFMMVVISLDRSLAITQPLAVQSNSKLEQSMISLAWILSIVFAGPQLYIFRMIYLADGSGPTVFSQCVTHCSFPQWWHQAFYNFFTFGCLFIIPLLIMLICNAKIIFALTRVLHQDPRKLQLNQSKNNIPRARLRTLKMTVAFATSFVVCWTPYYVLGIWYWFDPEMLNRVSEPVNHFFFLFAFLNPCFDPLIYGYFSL
# Experiment: Radioligand binding, 125I-GnRH-A, 293 cells expressing mouse GnRH receptors
# Conditions: 10 uM; read-out: % Inhib. @ 10 uM mGnRH
# How it was run: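 Bound label captured on 0.1% polyethyleneimine-treated GF/C filters, washed three times with PBS, counted. IC50 derived; identical set-up for every species.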
row,inhibition at 10 µM [%],Compound
1,102,Cc1cc2c(cc1Cc1ccc(C(=O)NCCN(C(C)C)C(C)C)o1)C(C)(C)CCC2(C)C
2,60,Cc1cc2c(cc1Cc1ccc(C(=O)NC3CCC3)o1)C(C)(C)CCC2(C)C [drawing 1456]
3,70,Cc1cc2c(cc1Cc1ccc(C(=O)NC[C@@H](C)c3ccccc3)o1)C(C)(C)CCC2(C)C
4,63,Cc1cc2c(cc1Cc1ccc(C(=O)N3CCN(CCOCCO)CC3)o1)C(C)(C)CCC2(C)C [drawing 1252]
5,72,COc1ccc(CCN(CC(C)c2ccccc2)C(=O)c2ccc(Cc3cc4c(cc3C)C(C)(C)CCC4(C)C)o2)cc1OC (stereo not drawn)
6,79,Cc1cc2c(cc1Cc1ccc(C(=O)N(Cc3cccnc3)Cc3ccc(Cl)c(Cl)c3)o1)C(C)(C)CCC2(C)C
7,103,Cc1cc2c(cc1Cc1ccc(C(=O)N(CCN(C)C)Cc3ccccc3[N+](=O)[O-])o1)C(C)(C)CCC2(C)C [drawing 1491]
8,48,Cc1cc2c(cc1Cc1ccc(C(=O)N3CCC(Cc4ccccc4)CC3)o1)C(C)(C)CCC2(C)C [drawing 1425]
9,100,Cc1cc2c(cc1Cc1ccc(C(=O)N3CCN(C(C)C)CC3)o1)C(C)(C)CCC2(C)C
10,77,Cc1cc2c(cc1Cc1ccc(C(=O)N(CCC#N)CCC#N)o1)C(C)(C)CCC2(C)C [drawing 1536]
11,104,Cc1cc2c(cc1Cc1ccc(C(=O)N(CCN(C)C)Cc3ccccc3)o1)C(C)(C)CCC2(C)C [drawing 1255]
12,28,Cc1cc2c(cc1Cc1ccc(C(=O)NC(C)c3cccc4ccccc34)o1)C(C)(C)CCC2(C)C (stereo not drawn)
13,73,Cc1cc2c(cc1Cc1ccc(C(=O)NC3CCCC3)o1)C(C)(C)CCC2(C)C
14,86,Cc1cc2c(cc1Cc1ccc(C(=O)N(C)CC3OCCO3)o1)C(C)(C)CCC2(C)C [drawing 1500]
15,64,COc1cc(CN(Cc2ccncc2)C(=O)c2ccc(Cc3cc4c(cc3C)C(C)(C)CCC4(C)C)o2)ccc1OCc1ccccc1
16,86,CCN(Cc1ccccc1F)C(=O)c1ccc(Cc2cc3c(cc2C)C(C)(C)CCC3(C)C)o1
17,103,Cc1cc2c(cc1Cc1ccc(C(=O)N3CCN(CC(=O)N(C)c4ccccc4)CC3)o1)C(C)(C)CCC2(C)C
18,97,Cc1cc2c(cc1Cc1ccc(C(=O)NCc3ccc(F)cc3)o1)C(C)(C)CCC2(C)C [drawing 1482]
19,20,Cc1cc2c(cc1Cc1ccc(C(=O)N(Cc3ccco3)C3CC(=O)N(Cc4ccccc4)C3=O)o1)C(C)(C)CCC2(C)C (stereo not drawn)
20,91,Cc1cc2c(cc1Cc1ccc(C(=O)N3CCN(C(C)c4ccccc4)CC3)o1)C(C)(C)CCC2(C)C (stereo not drawn)
21,75,CSc1ccc(CN(CCc2ccccn2)C(=O)c2ccc(Cc3cc4c(cc3C)C(C)(C)CCC4(C)C)o2)cc1

row,inhibition at 10 µM [%],Compound
1,85,Cc1cc2c(cc1Cc1ccc(C(=O)N3CC=C(n4c(=O)[nH]c5ccccc54)CC3)o1)C(C)(C)CCC2(C)C
2,34,Cc1cc2c(cc1Cc1ccc(C(=O)N(CCO)CCO)o1)C(C)(C)CCC2(C)C
3,91,Cc1cc2c(cc1Cc1ccc(C(=O)N(Cc3ccoc3)C3CCN(Cc4ccccc4)C3)o1)C(C)(C)CCC2(C)C (stereo not drawn) [drawing 1561]
4,49,Cc1cc2c(cc1Cc1ccc(C(=O)NCC[N+](C)(C)C)o1)C(C)(C)CCC2(C)C
5,94,CCN(CCCCO)C(=O)c1ccc(Cc2cc3c(cc2C)C(C)(C)CCC3(C)C)o1
6,105,Cc1cc2c(cc1Cc1ccc(C(=O)N(CCC3CCCN3C)Cc3ccc4ccccc4c3)o1)C(C)(C)CCC2(C)C (stereo not drawn) [drawing 1492]
7,63,CC(=O)NC1CCN(C(=O)c2ccc(Cc3cc4c(cc3C)C(C)(C)CCC4(C)C)o2)C1 (stereo not drawn)
8,71,CCOC(=O)C1CN(C(=O)c2ccc(Cc3cc4c(cc3C)C(C)(C)CCC4(C)C)o2)CCC1=O (stereo not drawn)
9,101,COC(CCCNC(=O)c1ccc(Cc2cc3c(cc2C)C(C)(C)CCC3(C)C)o1)OC [drawing 1383]
10,105,CSCCC(CO)NC(=O)c1ccc(Cc2cc3c(cc2C)C(C)(C)CCC3(C)C)o1 (stereo not drawn) [drawing 1580]
11,58,Cc1cc2c(cc1Cc1ccc(C(=O)N(C)CCC=C3c4ccccc4CCc4ccccc43)o1)C(C)(C)CCC2(C)C [drawing 1472]
12,4,Cc1cc2c(cc1Cc1ccc(C(=O)N3CCN(C(c4ccccc4)c4ccc(Cl)cc4)CC3)o1)C(C)(C)CCC2(C)C (stereo not drawn)
13,99,CCC(O)CNC(=O)c1ccc(Cc2cc3c(cc2C)C(C)(C)CCC3(C)C)o1 (stereo not drawn) [drawing 1537]
14,66,Cc1cc2c(cc1Cc1ccc(C(=O)N3CCN(CCCO)CC3)o1)C(C)(C)CCC2(C)C
15,95,CCN1CC(N(CCC(C)c2ccccc2)C(=O)c2ccc(Cc3cc4c(cc3C)C(C)(C)CCC4(C)C)o2)CN1CC (stereo not drawn) [drawing 1568]
16,99,Cc1cc2c(cc1Cc1ccc(C(=O)N(Cc3cccnc3)Cc3ccoc3)o1)C(C)(C)CCC2(C)C
17,94,CCOC(=O)C1CCCCN1C(=O)c1ccc(Cc2cc3c(cc2C)C(C)(C)CCC3(C)C)o1 (stereo not drawn)
18,86,Cc1cc2c(cc1Cc1ccc(C(=O)N3CCN(C/C=C/c4ccccc4)CC3)o1)C(C)(C)CCC2(C)C
19,37,Cc1cc2c(cc1Cc1ccc(C(=O)NC3C4CC5CC6CC(C5)C643)o1)C(C)(C)CCC2(C)C (stereo not drawn)
20,79,CCN(Cc1ccc(C)cc1)C(=O)c1ccc(Cc2cc3c(cc2C)C(C)(C)CCC3(C)C)o1 [drawing 1543]

# Same assay, conditions: 1 h, substrate remaining; 10 uM compound; closer to zero = closer to 100% inhibition; read-out: S%R 10 uM mGnRHR
row,remaining activity at 10 µM [%],Compound
1,43,Cc1cc2c(cc1Cc1ccc(C(=O)N(C)CCC=C3c4ccccc4CCc4ccccc43)o1)C(C)(C)CCC2(C)C [Compound 535]
2,-4,Cc1cc2c(cc1Cc1ccc(C(=O)NCCCN3CCOCC3)o1)C(C)(C)CCC2(C)C [Compound 460]
3,34,Cc1cc2c(cc1Cc1ccc(C(=O)NC(C)(C)CC(C)(C)C)o1)C(C)(C)CCC2(C)C [Compound 654]
4,-7,Cc1cc2c(cc1Cc1ccc(C(=O)NCCCN3CCCCC3C)o1)C(C)(C)CCC2(C)C (stereo not drawn) [Compound 494]
5,39,COc1ccc(C(=O)CNC(=O)c2ccc(Cc3cc4c(cc3C)C(C)(C)CCC4(C)C)o2)cc1 [Compound 474]
6,28,Cc1ccc(N2CCN(C(=O)c3ccc(Cc4cc5c(cc4C)C(C)(C)CCC5(C)C)o3)CC2C)cc1 (stereo not drawn) [Compound 702]
7,54,Cc1cc2c(cc1Cc1ccc(C(=O)N3CCc4ccccc4C3Cc3ccccc3)o1)C(C)(C)CCC2(C)C (stereo not drawn) [Compound 677]
8,0,CCCCN(C)C(=O)c1ccc(Cc2cc3c(cc2C)C(C)(C)CCC3(C)C)o1 [Compound 680]
9,47,Cc1cc2c(cc1Cc1ccc(C(=O)NCc3cccc(NC(=O)N(Cc4ccccc4)c4ccccc4)c3)o1)C(C)(C)CCC2(C)C [Compound 511]
10,43,Cc1cc2c(cc1Cc1ccc(C(=O)N3CCN(c4cccc(C)c4C)CC3)o1)C(C)(C)CCC2(C)C [Compound 581]
11,-12,Cc1cc2c(cc1Cc1ccc(C(=O)NCCC3CCCN3C)o1)C(C)(C)CCC2(C)C (stereo not drawn) [Compound 456]
12,24,Cc1cc2c(cc1Cc1ccc(C(=O)N(CCc3ccccn3)Cc3ccccc3)o1)C(C)(C)CCC2(C)C [Compound 595]
13,-4,Cc1cc2c(cc1Cc1ccc(C(=O)NCCC3OCCO3)o1)C(C)(C)CCC2(C)C [Compound 676]
14,-4,Cc1cc2c(cc1Cc1ccc(C(=O)NCCc3ccccn3)o1)C(C)(C)CCC2(C)C [Compound 507]
15,53,Cc1cc2c(cc1Cc1ccc(C(=O)NCCc3ccc(S(N)(=O)=O)cc3)o1)C(C)(C)CCC2(C)C [Compound 461]
16,10,COCC(C)NC(=O)c1ccc(Cc2cc3c(cc2C)C(C)(C)CCC3(C)C)o1 (stereo not drawn) [Compound 557]
17,8,C=C(C)CNC(=O)c1ccc(Cc2cc3c(cc2C)C(C)(C)CCC3(C)C)o1 [Compound 624]
18,3,Cc1cc2c(cc1Cc1ccc(C(=O)NC[C@@H]3CCCC[C@H]3O)o1)C(C)(C)CCC2(C)C [Compound 566]
19,12,CCN(CC)CCN(C)C(=O)c1ccc(Cc2cc3c(cc2C)C(C)(C)CCC3(C)C)o1 [Compound 532]
20,4,COc1cccc(CCNC(=O)c2ccc(Cc3cc4c(cc3C)C(C)(C)CCC4(C)C)o2)c1 [Compound 495]
21,17,C=CCN(CC=C)C(=O)c1ccc(Cc2cc3c(cc2C)C(C)(C)CCC3(C)C)o1 [Compound 538]
22,-14,Cc1cc2c(cc1Cc1ccc(C(=O)NC3CCCC(Nc4ccnc(NCC5CCCO5)n4)C3)o1)C(C)(C)CCC2(C)C (stereo not drawn) [Compound 473]
23,6,CCN1CC(N(Cc2ccc(N(C)C)cc2)C(=O)c2ccc(Cc3cc4c(cc3C)C(C)(C)CCC4(C)C)o2)CN1CC [Compound 653]
24,28,CCC(C)CNC(=O)c1ccc(Cc2cc3c(cc2C)C(C)(C)CCC3(C)C)o1 (stereo not drawn) [Compound 568]
25,19,Cc1cc2c(cc1Cc1ccc(C(=O)NCCc3ccc(Cl)cc3)o1)C(C)(C)CCC2(C)C [Compound 642]
26,1,CCCN(CCc1ccccn1)C(=O)c1ccc(Cc2cc3c(cc2C)C(C)(C)CCC3(C)C)o1 [Compound 697]
27,-5,CSCCC(CO)NC(=O)c1ccc(Cc2cc3c(cc2C)C(C)(C)CCC3(C)C)o1 (stereo not drawn) [Compound 675]
28,44,Cc1cc2c(cc1Cc1ccc(C(=O)NCCNc3cccc4ccccc34)o1)C(C)(C)CCC2(C)C [Compound 602]
